Tests used:
pentylenetetrazol [1] = assay: Subcutaneous Metrazol seizure test (scMET), rats p.o.; format: in vivo, Sprague-Dawley rats; conditions: po, rat
Excerpt: (§1) The fluoro derivatives synthesized were submitted to the National Institute of Neurological Disorders and Stroke (NINDS) for evaluation in a standard panel of assays. Two convulsant tests (MES and scMET), and a toxicity screen (rotorod in mice, positional sense and gait in rats) were employed for evaluating the compounds activity as neuroprotecting agents. These testing procedures are described in detail in Molecular and Cellular Targets for Anti-epileptic Drugs, eds. G. Avanzini, G. Regesta, P. Tanganelli, M. Avoli, 1997, John Libbey & Company Ltd, pp 191-198. The felbamate derivatives were evaluated for anticonvulsant activity following intraperitoneal (i.p.) administration in mice and oral administration in rats.
This is a model that primarily identifies compounds that raise seizure threshold. With some minor exceptions, the pharmacological profile of the scMET seizure model is consistent with the human condition. […]
For the MES and scMET tests the data is presented in the form of the number of animals protected by the administered compound / total number of animals tested. […] More extensive quantitative data was also obtained for fluoro felbamate 12 in mice (Table 3) and rats (Table 4).

[2] = tested on: MES-induced seizure spread; assay: Maximal Electroshock Seizure (MES) test, rats p.o.; format: in vivo, rat; conditions: for MES, number of animals protected / total number of animals tested: rat p.o., 30 mg/kg
Excerpt: as §1
(§2) The MES test is a model for generalized tonic-clonic seizures and is used to identify compounds which prevent seizure spread. The behavioral and electrographic seizures generated in this model are consistent with the human disorder. In the MES test, an electrical stimulus of 0.2 s in duration (50 mA in mice and 150 mA in rat at 60Hz) was delivered via corneal electrodes primed with an electrolyte solution containing an anesthetic agent. Mice were tested at 30 minutes and 4 hours following doses of 30, 100 and 300 mg/kg of test compound. Rats were tested at time intervals between 0.25 and 4 hours following a standard oral dose of 30 mg/kg. Abolition of the hindlimb tonic extensor component indicates the test compound's ability to inhibit MES-induced seizure spread.
(§3) For the MES and scMET tests the data is presented in the form of the number of animals protected by the administered compound / total number of animals tested. […] Qualitative data was obtained for fluoro felbamate 12 (Tables 1 and 2A), fluoro monocarbamate felbamate 13 (Tables 1 and 2B), and fluorodioxo 16 (Tables 1 and 2C) and for cyclic felbamate 21 (Tables 5 and 6B) and cyclic monocarbamate 22 (Tables 5 and 6A). More extensive quantitative data was also obtained for fluoro felbamate 12 in mice (Table 3) and rats (Table 4).

mice = assay: Minimal neurotoxicity (TOX), rotorod test, mice i.p.; format: in vivo; conditions: for TOX, number of animals exhibiting toxic effects / total number of animals tested: mice i.p.
Excerpt: as §1, with “G. Avanzini, G. Regesta, P. Tanganelli, M. Avoli, 1997, John Libbey & Company Ltd, pp 191-198.” left out, “rats. […]” for “rats.”

[3] = tested on: MES-induced seizure spread; assay: Maximal Electroshock Seizure (MES) test, mice i.p.; format: in vivo; conditions: for MES, number of animals protected / total number of animals tested: mice i.p.
Excerpt: as §1
as §2, with “Mice were tested at 30 minutes and 4 hours following doses of 30, 100 and 300 mg/kg of test compound.” left out
as §3

pentylenetetrazol [4] = assay: Subcutaneous Metrazol seizure test (scMET), mice i.p.; format: in vivo, Carworth Farms No. 1 mice; conditions: for ScMET, number of animals protected / total number of animals tested: mice i.p.
Excerpt: as §1
This is a model that primarily identifies compounds that raise seizure threshold. With some minor exceptions, the pharmacological profile of the scMET seizure model is consistent with the human condition. The scMET test utilizes a dose of pentylenetetrazol (85 mg/kg in Carworth Farms No. 1 mice and 70 mg/kg in Sprague-Dawley rats) that induces clonic seizures lasting for a period of at least five seconds in 97 % (CD97) of animals tested. At the anticipated time of testing the convulsant is administered subcutaneously. The test compound is administered intraperitoneally in mice and orally in rats. Animals are observed over a 30 minute period. Absence of clonic spasms in the observed time period indicates a compound's ability to abolish the effect of pentylenetetrazol on seizure threshold.
as §3

[5] = tested on: MES-induced seizure spread; assay: Maximal Electroshock Seizure (MES) test, mice oral; format: in vivo; conditions: Mus musculus, oral administration
Experimental: as §2
Toxicity across time doe not occur until dosages of 300mg/kg. […] Quantitative results obtained for fluoro felbamate 12 in mice indicated a MES ED50 of approximately 20 mg/kg with a safety ratio of at least five (see Table 3). Results obtained for oral administration of fluoro felbamate 12 to rats indicated a MES ED50 of about 3 mg/kg with no toxicity at doses up to 500 mg/kg.

SMILES: NC(=O)OCC(F)(COC(N)=O)c1ccccc1 [fluoro felbamate, 2-Fluoro-2-phenyl-1,3-propanediol dicarbamate]
- ED50 (pentylenetetrazol [1]): > 250 mg/kg
- ED50 ([2]; Rattus norvegicus, po, read-out: MES ED50, rat, p.o.): ~3 mg/kg
- MES, number of animals protected / total number of animals tested ([2]; 0.25h): 2/4
- MES, number of animals protected / total number of animals tested ([2]; 0.5h): 4/4
- MES, number of animals protected / total number of animals tested ([2]; 1.0h): 4/4
- MES, number of animals protected / total number of animals tested ([2]; 2.0h): 4/4
- MES, number of animals protected / total number of animals tested ([2]; 4.0h): 4/4
- TOX, number of animals exhibiting toxic effects / total number of animals tested (mice; 3 mg/kg, 0.5h): 0/4
- TOX, number of animals exhibiting toxic effects / total number of animals tested (mice; 3 mg/kg, 4.0h): 0/4
- TOX, number of animals exhibiting toxic effects / total number of animals tested (mice; 10 mg/kg, 0.5h): 0/4
- TOX, number of animals exhibiting toxic effects / total number of animals tested (mice; 10 mg/kg, 4.0h): 0/4
- TOX, number of animals exhibiting toxic effects / total number of animals tested (mice; 30 mg/kg, 0.5h): 1/4
- TOX, number of animals exhibiting toxic effects / total number of animals tested (mice; 30 mg/kg, 4.0h): 0/2
- TOX, number of animals exhibiting toxic effects / total number of animals tested (mice; 100 mg/kg, 0.5h): 4/8
- TOX, number of animals exhibiting toxic effects / total number of animals tested (mice; 100 mg/kg, 4.0h): 0/4
- TOX, number of animals exhibiting toxic effects / total number of animals tested (mice; 300 mg/kg, 0.5h): 4/4
- TOX, number of animals exhibiting toxic effects / total number of animals tested (mice; 300 mg/kg, 4.0h): 2/2
- safety ratio (mice; mice, i.p., toxicity relative to MES ED50): at least five
- ED50 ([3]; Mus musculus, ip, read-out: MES ED50, mouse, I.P.): ~20 mg/kg
- MES, number of animals protected / total number of animals tested ([3]; 3 mg/kg, 0.5h): 0/4
- MES, number of animals protected / total number of animals tested ([3]; 3 mg/kg, 4.0h): 0/1
- MES, number of animals protected / total number of animals tested ([3]; 10 mg/kg, 0.5h): 0/4
- MES, number of animals protected / total number of animals tested ([3]; 10 mg/kg, 4.0h): 1/4
- MES, number of animals protected / total number of animals tested ([3]; 30 mg/kg, 0.5h): 1/1
- MES, number of animals protected / total number of animals tested ([3]; 30 mg/kg, 4.0h): 1/1
- MES, number of animals protected / total number of animals tested ([3]; 100 mg/kg, 0.5h): 3/3
- MES, number of animals protected / total number of animals tested ([3]; 100 mg/kg, 4.0h): 3/3
- MES, number of animals protected / total number of animals tested ([3]; 300 mg/kg, 0.5h): 1/1
- MES, number of animals protected / total number of animals tested ([3]; 300 mg/kg, 4.0h): 1/1
- MES ED50 ([3]; mouse, I.P.): 19.96 mg/kg
- ED50 (pentylenetetrazol [4]; Mus musculus, ip, read-out: ScMET ED50): > 160 mg/kg
- ScMET, number of animals protected / total number of animals tested (pentylenetetrazol [4]; 30 mg/kg, 0.5h): 0/1
- ScMET, number of animals protected / total number of animals tested (pentylenetetrazol [4]; 30 mg/kg, 4.0h): 0/1
- ScMET, number of animals protected / total number of animals tested (pentylenetetrazol [4]; 100 mg/kg, 0.5h): 0/1
- ScMET, number of animals protected / total number of animals tested (pentylenetetrazol [4]; 100 mg/kg, 4.0h): 0/1
- ScMET, number of animals protected / total number of animals tested (pentylenetetrazol [4]; 300 mg/kg, 0.5h): 0/1
- ScMET, number of animals protected / total number of animals tested (pentylenetetrazol [4]; 300 mg/kg, 4.0h): 0/1
- ED50 [5]: ~27 mg/kg

— patent EP1282414B1, “FELBAMATE DERIVED COMPOUNDS FOR TREATING NEUROPATHIC PAIN” (University of Virginia Patent Foundation, priority 2000, dated 2001)
